Measurements reported in US10738028B2, “Spiro three-membered ring, spiro five-membered ring peptide deformylase inhibitor and use thereof in antibacteria and anti-tumor” (priority 2016, dated 2020).

Assays:
Format in all cases: cell-based
[1] = test system: Enterococcus faecalis (EFA); assay: MIC, two-fold agar dilution (CLSI), clinical isolates; conditions: for Anti-bacterial activity (MIC), strain EFA 15-1: clinical isolate EFA 15-1; for Anti-bacterial activity (MIC), strain EFA 15-2: clinical isolate EFA 15-2; for Anti-bacterial activity (MIC), strain EFA 15-3: clinical isolate EFA 15-3; for Anti-bacterial activity (MIC), strain EFA 15-4: clinical isolate EFA 15-4; for Anti-bacterial activity (MIC), strain EFA 15-5: clinical isolate EFA 15-5; for Anti-bacterial activity (MIC), strain EFA 15-6: clinical isolate EFA 15-6; for Anti-bacterial activity (MIC), strain EFA 15-9: clinical isolate EFA 15-9
How it was run: (§1)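 Susceptibility was tested using CLSI two-fold agar dilution against the strains examined.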

[2] = test system: Enterococcus faecium (EFM); assay: as above; conditions: for Anti-bacterial activity (MIC), strain EFM 15-1: clinical isolate EFM 15-1; for Anti-bacterial activity (MIC), strain EFM 15-2: clinical isolate EFM 15-2; for Anti-bacterial activity (MIC), strain EFM 15-3: clinical isolate EFM 15-3; for Anti-bacterial activity (MIC), strain EFM 15-4: clinical isolate EFM 15-4; for Anti-bacterial activity (MIC), strain EFM 15-5: clinical isolate EFM 15-5; for Anti-bacterial activity (MIC), strain EFM 15-6: clinical isolate EFM 15-6
How it was run: as §1

[3] = test system: Escherichia coli (including ESBLs, non-ESBLs); assay: as above; conditions: for Anti-bacterial activity (MIC), strain ECO+ 15-1: clinical isolate ECO+ 15-1; for Anti-bacterial activity (MIC), strain ECO+ 15-2: clinical isolate ECO+ 15-2; for Anti-bacterial activity (MIC), strain ECO+ 15-3: clinical isolate ECO+ 15-3; for Anti-bacterial activity (MIC), strain ECO+ 15-4: clinical isolate ECO+ 15-4; for Anti-bacterial activity (MIC), strain ECO− 15-1: clinical isolate ECO− 15-1; for Anti-bacterial activity (MIC), strain ECO− 15-2: clinical isolate ECO− 15-2; for Anti-bacterial activity (MIC), strain ECO− 15-3: clinical isolate ECO− 15-3; for Anti-bacterial activity (MIC), strain ECO− 15-4: clinical isolate ECO− 15-4
How it was run: as §1

[4] = test system: Moraxella catarrhalis (BCA); assay: as above; conditions: for Anti-bacterial activity (MIC), strain BCA 14-1: clinical isolate BCA 14-1; for Anti-bacterial activity (MIC), strain BCA 14-4: clinical isolate BCA 14-4; for Anti-bacterial activity (MIC), strain BCA 14-5: clinical isolate BCA 14-5; for Anti-bacterial activity (MIC), strain BCA 14-6: clinical isolate BCA 14-6; for Anti-bacterial activity (MIC), strain BCA 14-7: clinical isolate BCA 14-7; for Anti-bacterial activity (MIC), strain BCA 14-8: clinical isolate BCA 14-8; for Anti-bacterial activity (MIC), strain BCA 14-10: clinical isolate BCA 14-10
How it was run: as §1

[5] = test system: Streptococcus pneoumoniae (SPN); assay: as above; conditions: for Anti-bacterial activity (MIC), strain SPN 16-2: clinical isolate SPN 16-2; for Anti-bacterial activity (MIC), strain SPN 16-4: clinical isolate SPN 16-4
How it was run: as §1

[6] = test system: methicillin-resistant Staphylococcus aureus (MRSA); assay: as above; conditions: for Anti-bacterial activity (MIC), strain MRSA 15-1: clinical isolate MRSA 15-1; for Anti-bacterial activity (MIC), strain MRSA 15-2: clinical isolate MRSA 15-2; for Anti-bacterial activity (MIC), strain MRSA 15-3: clinical isolate MRSA 15-3; for Anti-bacterial activity (MIC), strain MRSA 15-4: clinical isolate MRSA 15-4
How it was run: as §1

[7] = test system: methicillin-resistant Staphylococcus epidermidis (MRSE); assay: as above; conditions: for Anti-bacterial activity (MIC), strain MRSE 15-1: clinical isolate MRSE 15-1; for Anti-bacterial activity (MIC), strain MRSE 15-2: clinical isolate MRSE 15-2; for Anti-bacterial activity (MIC), strain MRSE 15-3: clinical isolate MRSE 15-3; for Anti-bacterial activity (MIC), strain MRSE 15-7: clinical isolate MRSE 15-7
How it was run: as §1

[8] = test system: methicillin-sensitive Staphylococcus aureus (MSSA); assay: as above; conditions: for Anti-bacterial activity (MIC), strain MSSA 15-3: clinical isolate MSSA 15-3; for Anti-bacterial activity (MIC), strain MSSA 15-4: clinical isolate MSSA 15-4; for Anti-bacterial activity (MIC), strain MSSA 15-5: clinical isolate MSSA 15-5; for Anti-bacterial activity (MIC), strain MSSA 15-6: clinical isolate MSSA 15-6
How it was run: as §1

[9] = test system: methicillin-sensitive Staphylococcus epidermidis (MSSE); assay: as above; conditions: for Anti-bacterial activity (MIC), strain MSSE 15-3: clinical isolate MSSE 15-3; for Anti-bacterial activity (MIC), strain MSSE 15-4: clinical isolate MSSE 15-4; for Anti-bacterial activity (MIC), strain MSSE 15-5: clinical isolate MSSE 15-5; for Anti-bacterial activity (MIC), strain MSSE 15-6: clinical isolate MSSE 15-6
How it was run: as §1

[10] = test system: HCT-116 colorectal cancer cell line; assay: CCK-8 proliferation inhibition; conditions: Homo sapiens, HCT-116, 72 h, concentration of 30 μM; 72 hours; CCK-8; read-out: HCT116 inhibition rate/%
How it was run: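 Viability read-out: 1:10 diluted CCK-8 after 72 h compound exposure at 37 °C, 5% CO2. Cells (2000/well, McCoy's 5A plus 10% newborn bovine serum) pre-cultured overnight; vehicle control 1‰ DMSO.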

SMILES: CCCC[C@H](CC(=O)NO)C(=O)N1CC2(CC2)C[C@H]1C(=O)Nc1ccc(N2CCOCC2)cc1 [Example 43, (S)-5-((R)-2-(2-(hydroxyamino)-2-oxoethyl)hexanoyl)-N-(4-morpholinophenyl)-5-spiro[2.4]heptane-6-carboxamide]
- Anti-bacterial activity (MIC), strain EFA 15-1 [1]: > 32 µg/mL
- Anti-bacterial activity (MIC), strain EFA 15-2 [1]: > 32 µg/mL
- Anti-bacterial activity (MIC), strain EFA 15-3 [1]: > 32 µg/mL
- Anti-bacterial activity (MIC), strain EFA 15-4 [1]: > 32 µg/mL
- Anti-bacterial activity (MIC), strain EFA 15-5 [1]: > 32 µg/mL
- Anti-bacterial activity (MIC), strain EFA 15-6 [1]: > 32 µg/mL
- Anti-bacterial activity (MIC), strain EFA 15-9 [1]: > 32 µg/mL
- Anti-bacterial activity (MIC), strain EFM 15-1 [2]: > 32 µg/mL
- Anti-bacterial activity (MIC), strain EFM 15-2 [2]: > 32 µg/mL
- Anti-bacterial activity (MIC), strain EFM 15-3 [2]: > 32 µg/mL
- Anti-bacterial activity (MIC), strain EFM 15-4 [2]: > 32 µg/mL
- Anti-bacterial activity (MIC), strain EFM 15-5 [2]: 1 µg/mL
- Anti-bacterial activity (MIC), strain EFM 15-6 [2]: 2 µg/mL
- Anti-bacterial activity (MIC), strain ECO+ 15-1 [3]: 1 µg/mL
- Anti-bacterial activity (MIC), strain ECO+ 15-2 [3]: > 32 µg/mL
- Anti-bacterial activity (MIC), strain ECO+ 15-3 [3]: > 32 µg/mL
- Anti-bacterial activity (MIC), strain ECO+ 15-4 [3]: 1 µg/mL
- Anti-bacterial activity (MIC), strain ECO− 15-1 [3]: > 32 µg/mL
- Anti-bacterial activity (MIC), strain ECO− 15-2 [3]: > 32 µg/mL
- Anti-bacterial activity (MIC), strain ECO− 15-3 [3]: > 32 µg/mL
- Anti-bacterial activity (MIC), strain ECO− 15-4 [3]: > 32 µg/mL
- Anti-bacterial activity (MIC), strain BCA 14-1 [4]: 2 µg/mL
- Anti-bacterial activity (MIC), strain BCA 14-4 [4]: 2 µg/mL
- Anti-bacterial activity (MIC), strain BCA 14-5 [4]: 1 µg/mL
- Anti-bacterial activity (MIC), strain BCA 14-6 [4]: 1 µg/mL
- Anti-bacterial activity (MIC), strain BCA 14-7 [4]: 2 µg/mL
- Anti-bacterial activity (MIC), strain BCA 14-8 [4]: 2 µg/mL
- Anti-bacterial activity (MIC), strain BCA 14-10 [4]: 2 µg/mL
- Anti-bacterial activity (MIC), strain SPN 16-2 [5]: 1 µg/mL
- Anti-bacterial activity (MIC), strain SPN 16-4 [5]: 1 µg/mL
- Anti-bacterial activity (MIC), strain MRSA 15-1 [6]: 1 µg/mL
- Anti-bacterial activity (MIC), strain MRSA 15-2 [6]: 4 µg/mL
- Anti-bacterial activity (MIC), strain MRSA 15-3 [6]: 1 µg/mL
- Anti-bacterial activity (MIC), strain MRSA 15-4 [6]: 4 µg/mL
- Anti-bacterial activity (MIC), strain MRSE 15-1 [7]: 1 µg/mL
- Anti-bacterial activity (MIC), strain MRSE 15-2 [7]: 4 µg/mL
- Anti-bacterial activity (MIC), strain MRSE 15-3 [7]: 4 µg/mL
- Anti-bacterial activity (MIC), strain MRSE 15-7 [7]: 1 µg/mL
- Anti-bacterial activity (MIC), strain MSSA 15-3 [8]: 4 µg/mL
- Anti-bacterial activity (MIC), strain MSSA 15-4 [8]: 4 µg/mL
- Anti-bacterial activity (MIC), strain MSSA 15-5 [8]: 1 µg/mL
- Anti-bacterial activity (MIC), strain MSSA 15-6 [8]: 4 µg/mL
- Anti-bacterial activity (MIC), strain MSSE 15-3 [9]: 1 µg/mL
- Anti-bacterial activity (MIC), strain MSSE 15-4 [9]: 1 µg/mL
- Anti-bacterial activity (MIC), strain MSSE 15-5 [9]: 1 µg/mL
- Anti-bacterial activity (MIC), strain MSSE 15-6 [9]: 1 µg/mL
- inhibition at 30 µM [10]: 6%

SMILES: CCCC[C@H](CC(=O)NO)C(=O)N1CC2(CC2)C[C@H]1C(=O)Nc1cnccn1 [Example 44]
- Anti-bacterial activity (MIC), strain EFA 15-1 [1]: > 32 µg/mL
- Anti-bacterial activity (MIC), strain EFA 15-2 [1]: > 32 µg/mL
- Anti-bacterial activity (MIC), strain EFA 15-3 [1]: > 32 µg/mL
- Anti-bacterial activity (MIC), strain EFA 15-4 [1]: > 32 µg/mL
- Anti-bacterial activity (MIC), strain EFA 15-5 [1]: > 32 µg/mL
- Anti-bacterial activity (MIC), strain EFA 15-6 [1]: > 32 µg/mL
- Anti-bacterial activity (MIC), strain EFA 15-9 [1]: 32 µg/mL
- Anti-bacterial activity (MIC), strain EFM 15-1 [2]: > 32 µg/mL
- Anti-bacterial activity (MIC), strain EFM 15-2 [2]: > 32 µg/mL
- Anti-bacterial activity (MIC), strain EFM 15-3 [2]: > 32 µg/mL
- Anti-bacterial activity (MIC), strain EFM 15-4 [2]: > 32 µg/mL
- Anti-bacterial activity (MIC), strain EFM 15-5 [2]: 1 µg/mL
- Anti-bacterial activity (MIC), strain EFM 15-6 [2]: 2 µg/mL
- Anti-bacterial activity (MIC), strain ECO+ 15-1 [3]: 32 µg/mL
- Anti-bacterial activity (MIC), strain ECO+ 15-2 [3]: > 32 µg/mL
- Anti-bacterial activity (MIC), strain ECO+ 15-3 [3]: > 32 µg/mL
- Anti-bacterial activity (MIC), strain ECO+ 15-4 [3]: 1 µg/mL
- Anti-bacterial activity (MIC), strain ECO− 15-1 [3]: 32 µg/mL
- Anti-bacterial activity (MIC), strain ECO− 15-2 [3]: > 32 µg/mL
- Anti-bacterial activity (MIC), strain ECO− 15-3 [3]: > 32 µg/mL
- Anti-bacterial activity (MIC), strain ECO− 15-4 [3]: > 32 µg/mL
- Anti-bacterial activity (MIC), strain BCA 14-1 [4]: 4 µg/mL
- Anti-bacterial activity (MIC), strain BCA 14-4 [4]: 4 µg/mL
- Anti-bacterial activity (MIC), strain BCA 14-5 [4]: 1 µg/mL
- Anti-bacterial activity (MIC), strain BCA 14-6 [4]: 2 µg/mL
- Anti-bacterial activity (MIC), strain BCA 14-7 [4]: 4 µg/mL
- Anti-bacterial activity (MIC), strain BCA 14-8 [4]: 4 µg/mL
- Anti-bacterial activity (MIC), strain BCA 14-10 [4]: 2 µg/mL
- Anti-bacterial activity (MIC), strain SPN 16-2 [5]: 1 µg/mL
- Anti-bacterial activity (MIC), strain SPN 16-4 [5]: 1 µg/mL
- Anti-bacterial activity (MIC), strain MRSA 15-1 [6]: 0.5 µg/mL
- Anti-bacterial activity (MIC), strain MRSA 15-2 [6]: 1 µg/mL
- Anti-bacterial activity (MIC), strain MRSA 15-3 [6]: 1 µg/mL
- Anti-bacterial activity (MIC), strain MRSA 15-4 [6]: 1 µg/mL
- Anti-bacterial activity (MIC), strain MRSE 15-1 [7]: 1 µg/mL
- Anti-bacterial activity (MIC), strain MRSE 15-2 [7]: 1 µg/mL
- Anti-bacterial activity (MIC), strain MRSE 15-3 [7]: 1 µg/mL
- Anti-bacterial activity (MIC), strain MRSE 15-7 [7]: 1 µg/mL
- Anti-bacterial activity (MIC), strain MSSA 15-3 [8]: 0.5 µg/mL
- Anti-bacterial activity (MIC), strain MSSA 15-4 [8]: 1 µg/mL
- Anti-bacterial activity (MIC), strain MSSA 15-5 [8]: 1 µg/mL
- Anti-bacterial activity (MIC), strain MSSA 15-6 [8]: > 32 µg/mL
- Anti-bacterial activity (MIC), strain MSSE 15-3 [9]: 1 µg/mL
- Anti-bacterial activity (MIC), strain MSSE 15-4 [9]: 1 µg/mL
- Anti-bacterial activity (MIC), strain MSSE 15-5 [9]: 1 µg/mL
- Anti-bacterial activity (MIC), strain MSSE 15-6 [9]: 1 µg/mL
- inhibition at 30 µM [10]: 21%
